Experimental data: PMC7560712, “Analysis of translating mitoribosome reveals functional characteristics of translation in mitochondria of fungi” (Nature Communications, 2020)

What was measured:
[1] = biological target: T1, mS29 (mitoribosomal small subunit) (Neurospora crassa, UniProt Q7SD06); experiment: cryo-EM structure; format: binding; settings: co-purified endogenous nucleotide in P-loop pocket; assigned as ATP rather than GDP from density and chemical environment (Leu150); local resolution 2.77 A
T1 construct: gene rsm23; native mS29 within the mtSSU of intact mitoribosomes purified from mycelia mitochondria; His-tag is on Oxa1 only
T1 sequence (Q7SD06 1-469): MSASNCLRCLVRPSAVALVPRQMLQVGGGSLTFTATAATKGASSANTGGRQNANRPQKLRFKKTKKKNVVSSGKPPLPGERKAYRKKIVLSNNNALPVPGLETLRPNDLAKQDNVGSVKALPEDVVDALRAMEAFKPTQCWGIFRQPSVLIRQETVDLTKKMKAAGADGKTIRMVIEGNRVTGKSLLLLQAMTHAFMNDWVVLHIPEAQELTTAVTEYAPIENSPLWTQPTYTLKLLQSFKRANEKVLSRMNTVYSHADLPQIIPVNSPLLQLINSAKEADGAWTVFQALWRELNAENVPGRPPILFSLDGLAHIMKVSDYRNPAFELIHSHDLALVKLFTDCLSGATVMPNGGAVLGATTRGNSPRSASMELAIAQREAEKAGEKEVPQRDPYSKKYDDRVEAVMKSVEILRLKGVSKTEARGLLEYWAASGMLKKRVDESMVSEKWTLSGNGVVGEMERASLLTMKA

[2] = biological target: T2, pocket formed by mL40, uL5m, and rRNA H84-ES3 (central protuberance of mtLSU) (Neurospora crassa, UniProt Q1K6P0+V5IQE0); experiment: cryo-EM structure; format: binding; settings: co-purified endogenous ligand; assignment 'most likely'; Arg295 of mL40 stacks on nicotinamide; rRNA part of site; oxidation state not stated
T2 construct: gene mrpl28; native proteins within the mtLSU of intact mitoribosomes; site also formed by 23S rRNA (H84-ES3, A2755, U2759)
T2 sequence (Q1K6P0 whole entry): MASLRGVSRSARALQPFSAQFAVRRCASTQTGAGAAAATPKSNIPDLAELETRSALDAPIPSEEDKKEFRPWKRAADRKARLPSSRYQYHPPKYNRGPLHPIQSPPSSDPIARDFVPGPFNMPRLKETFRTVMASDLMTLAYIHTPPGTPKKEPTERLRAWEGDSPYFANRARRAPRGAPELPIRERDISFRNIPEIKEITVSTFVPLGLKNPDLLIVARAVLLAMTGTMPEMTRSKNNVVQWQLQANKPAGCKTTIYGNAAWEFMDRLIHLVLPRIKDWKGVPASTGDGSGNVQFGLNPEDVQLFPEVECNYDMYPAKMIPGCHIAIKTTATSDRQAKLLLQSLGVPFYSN
T2 sequence (V5IQE0 whole entry): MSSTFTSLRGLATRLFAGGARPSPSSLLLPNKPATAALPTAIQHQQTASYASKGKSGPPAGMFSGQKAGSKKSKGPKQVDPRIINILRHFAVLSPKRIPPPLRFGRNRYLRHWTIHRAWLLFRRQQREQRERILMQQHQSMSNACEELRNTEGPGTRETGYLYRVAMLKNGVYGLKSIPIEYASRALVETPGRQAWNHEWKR

Row | SMILES | cryo-EM structure [1] | cryo-EM structure [2]
1 | Nc1ncnc2c1ncn2[C@@H]1O[C@H](COP(=O)(O)OP(=O)(O)OP(=O)(O)O)[C@@H](O)[C@H]1O [ATP] | the correct assignment for the nucleotide is adenosine triphosphate (ATP) | –
2 | NC(=O)c1ccc[n+]([C@@H]2O[C@H](COP(=O)([O-])OP(=O)(O)OC[C@H]3O[C@@H](n4cnc5c(N)ncnc54)[C@H](O)[C@@H]3O)[C@@H](O)[C@H]2O)c1 [NAD] | – | we conclude that it is most likely to be NAD
